# According to patent publication US5594009A, “Fused pyrrolocarbazoles” (priority 1995, dated 1997):
# What was measured:
# [1] = test system: ChAT activity of basal forebrain cultures; test: Basal Forebrain ChAT Activity Assay; format: cell-based, rat
# Summary of the method: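 Basal forebrain neurons from E17–18 rat embryos were Dispase-dissociated and plated at 5×10^4 cells/well on poly-ornithine/laminin. Cultures were kept in serum-free N2 medium with 0.05% BSA at 37° C. ChAT activity was measured 5 days after plating as the read-out for compound-induced increase.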
# [2] = test system: choline acetyltransferase (ChAT) activity in dissociated rat embryonic spinal cord culture; test: Spinal Cord ChAT Activity Assay; format: cell-based; details: ChAT measured after 48 hours
# Procedure: In these assays, a fused pyrrolocarbazole was directly added to a dissociated spinal cord culture. […] The fused pyrrolocarbazole was added on the same day the dissociated spinal cord cell culture was initiated.
# Methods: Fetal rat spinal cord cells were dissociated, and experiments were performed as described (Smith et al., J. Cell Biology., 101:1608-1621 (1985); Glicksman et al., J. Neurochem. 61:210-221 (1993)). Dissociated cells were prepared from spinal cords dissected from rats (embryonic day 14-15) by standard trypsin dissociation techniques (Smith et al., J. Cell Biology 10:1608-1621 (1985)). Cells were plated at 6×10^5 cells/cm^2 on poly-1-ornithine coated plastic tissue culture wells in serum-free N2 medium supplemented with 0.05% bovine serum albumin (BSA) (Bottenstein et al., PNAS USA 514-517 (1979)). Cultures were incubated at 37° C. in a humidified atmosphere of 5% CO2 /95% air for 48 hours. ChAT activity was measured after 2 days it vitro using a modification of the Fonnum procedure (Fonnum, J. Neurochem. 24:407-409 (1975)) according to McManaman et al. and Glicksman et al. (McManaman et al., Developmental Biology 125:311-320 (1988); Glicksman et al., J. Neurochem. 61:210-221 (1993)).
# [3] = test system: NT-3 induced ChAT activity of rat basal forebrain cultures; test: Enhancement of Neurotrophin (NT-3) Activity Assay, ChAT activity in basal forebrain cultures; format: cell-based
# Procedure: Fused pyrrolocarbazoles were tested for the ability to enhance the activity of the neurotrophin NT-3 in basal forebrain cultures. ChAT activity was assayed as a measure of cholinergic neuron function and survival. The concentration of NT-3 (100 ng/ml) used in these experiments increased ChAT activity over control cultures (untreated with NT-3 or a fused pyrrolocarbazole) by 140%.
# Methods. Basal forebrain cultures were prepared from embryonic rats (embryonic day 17) and dissociated with the neutral protease Dispase™. Cells were plated at a density of 4×10^5 cells/cm^2 on poly-1-ornithine coated plastic tissue culture plates in a mixture of DMEM and F12 media (50/50 v/v GIBCO) supplemented with 5% horse serum and 0.5% fetal bovine serum. Cells were incubated at 37° C. in a humidified atmosphere of 5% CO2 /95% air for 5 days. ChAT activity was measured as described in Example III(A)(1).
# Recombinant rat NT-3 was produced by using a recombinant baculovirus expression vector under the control of the polyhedron virus promoter (Fraser, In Vitro Cell. and Dev. Biol. 25:225-235 (1989)). The plasmid pXM-NT3 (Hallbook et al., Neuron 6:845-858 (1991), which contained the rat NT-3 cDNA clone, was provided by Dr. Ira Black (University of Medicine and Dentistry of New Jersey, Piscataway, N.J.). NT-3 cDNA was subcloned into the transfer vector pVL1392 (In Vitrogen Corp., San Diego, Calif.) for recombinant virus production. Recombinant baculovirus was produced as described in Meyer et al. (Meyer at al., J. Neurochem 62:825-833 (1994)).
# [4] = test system: chick dorsal root ganglion neurons; test: DRG Neurite Outgrowth Assay; format: cell-based; details: compound concentration 200 nM; 48 hours
# Procedure: Fused pyrrolocarbazoles promoted nerve fiber (i.e., neurite) outgrowth in explant (i.e., primary) cultures of chick dorsal root ganglion neurons. Dorsal root ganglion (i.e., DRG) nerve fiber outgrowth was increased when a fused pyrrolocarbazole was added to cultures at a concentration of 200 nM (Table IV). Control cultures consisted of: 1) no added NGF or fused pyrrolocarbazole ("Control"), or 2) 50 ng/ml NGF, a neurotrophin known to promote neurite extension in DRG cultures ("NGF").
# Methods: Dorsal root ganglia were dissected from chick embryos (embryonic day 9) and individual ganglia were plated on poly-1-ornithine and laminin coated plates. A fused pyrrolocarbazole or 50ng/ml NGF was each added to independent cultures after allowing a 1-2 hour cell attachment period. Explants were cultured for 48 hours in serum-free N2 medium supplemented with 0.05% BSA (Bottenstein et al., PNAS USA 76:514-517 (1979)). Cultures were maintained at 37° C. in a humidified atmosphere, 5% CO2 /95% air. Nerve fiber outgrowth was assessed by the density and length of neurites. It should be apparent to those skilled in the art that neurite extension assays are semi-quantitative and involve a visual comparison between control and experimental neuronal cell cultures (Alberts et al., Molecular Biology of the Cell, 2ed. Garland Publishing, Inc., New York (1989).
# [5] = biological target: protein kinase C; test: PKC Activity Inhibition Assay; format: biochemical
# Procedure: Fused pyrrolocarbazoles inhibited the activity of protein kinase C (Table VI). The protein kinase C assay has been disclosed (Murakata et al., U.S. Pat. No. 4,923,986; Kikkawa et al., J. Biol. Chem. 257:13341-13348 (1982)). The assay was performed with several concentrations of fused pyrrolocarbazoles. The concentration at which protein kinase C was 50% inhibited (IC50) was determined.
# [6] = biological target: trkA tyrosine kinase (Homo sapiens, UniProt P04629); test: trkA Tyrosine Kinase Activity Inhibition Assay (ELISA); format: biochemical; details: 16 μM ATP, 37° C., 15 min; read-out: INHIBITION OF trkA KINASE IC50
# trkA tyrosine kinase, sequence (P04629 33-796): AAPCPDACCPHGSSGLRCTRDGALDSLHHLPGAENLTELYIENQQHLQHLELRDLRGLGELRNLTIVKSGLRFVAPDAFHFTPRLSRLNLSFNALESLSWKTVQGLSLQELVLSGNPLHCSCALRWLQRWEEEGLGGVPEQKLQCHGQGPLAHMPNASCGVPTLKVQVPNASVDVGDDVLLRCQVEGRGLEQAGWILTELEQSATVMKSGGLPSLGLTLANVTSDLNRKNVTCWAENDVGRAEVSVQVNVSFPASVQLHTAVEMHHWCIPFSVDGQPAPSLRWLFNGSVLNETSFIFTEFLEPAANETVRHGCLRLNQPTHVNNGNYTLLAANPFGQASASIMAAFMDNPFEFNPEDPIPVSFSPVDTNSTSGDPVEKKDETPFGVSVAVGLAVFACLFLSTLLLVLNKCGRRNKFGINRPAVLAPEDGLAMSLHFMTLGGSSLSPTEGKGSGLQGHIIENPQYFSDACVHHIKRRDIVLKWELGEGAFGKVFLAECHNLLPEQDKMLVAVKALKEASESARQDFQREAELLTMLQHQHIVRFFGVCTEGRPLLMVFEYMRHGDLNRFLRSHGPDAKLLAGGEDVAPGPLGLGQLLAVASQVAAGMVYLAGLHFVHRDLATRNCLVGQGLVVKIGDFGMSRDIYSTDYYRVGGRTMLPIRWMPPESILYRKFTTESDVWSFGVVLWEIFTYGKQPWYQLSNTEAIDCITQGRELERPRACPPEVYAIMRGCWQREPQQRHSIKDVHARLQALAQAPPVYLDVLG
# Procedure: These compounds were then tested for the ability to inhibit substrate phosphorylation by the trkA tyrosine kinase.
# Plates were washed three times with TBST, followed by two washes with TBS (TBST sans Tween-20). Fused pyrrolocarbazoles were then added at various concentrations to a reaction mixture (50 mM HEPES, pH 7.4, 5 mM MnCl2, 5 mM MgCl2, 140 mM NaCl, 16 μM ATP, and 15 ng trkA in a total volume of 1001 μL.). As a negative control, 100 mM EDTA was included in the reaction solution. The plates were then incubated at 37° C. for 15 min. The detection antibody, monoclonal anti-phosphotyrosine antibody (UBI), was added at a dilution of 1:2000 in TBST, and incubated for 1 hour at 37° C. Plates were then washed three times with TBST, followed by a 1 hour incubation at 37° C. with alkaline phosphatase-labeled goat anti-mouse IgG (1:2000 in TBST (Bio-Rad)). After washing three times with TBST followed by two washes with TBS, a colored product was produced by using NADPH as substrate for alkaline phosphatase, and the coupled reactions of diaphorase and alcohol dehydrogenase (GIBCO-BRL ELISA amplification system). The colored product was read at 490 nm in a microplate reader (Biotek).
# [7] = test system: human keratinocytes; details: cited from earlier work
# [8] = test system: trk tyrosine kinase; details: cited from earlier work
# [9] = test system: protein kinase C ("PKC"); details: cited from earlier work
# [10] = test system: transcription of IFNα genes; details: not associated with the inhibition of protein kinase C; cited from earlier work
compound,measurement,setting,value
"O=C1NC(=O)c2c1c1c(c3[nH]c4ccccc4c23)Cc2ccccc2-1 [Compound I-1, 6H, 12H, 13H-Indeno[2,3-a]pyrrolo[3,4-c]carbazole-5,7(5H, 7H))-dione]",ChAT Activity (% of Control),[1]; 100 nM,inactive
same,ChAT Activity (% of Control),[1]; 250 nM,inactive
same,ChAT Activity (% of Control),[1]; 500 nM,inactive
same,"Spinal Cord ChAT Activity, % of Control, untreated cultures",[2],148 % of Control
same,ChAT activity in the absence of NT-3,"[3]; compound added alone to basal forebrain neurons, no NT-3",no effect on ChAT activity
same,ChAT activity in the presence of NT-3,[3]; with 100 ng/ml NT-3,enhanced ChAT activity
same,DRG Neurite Outgrowth,[4],modest number of neurites
same,IC50,[5],0.07 µM
same,IC50,[6],> 1 µM
COC(=O)[C@@]1(O)C[C@H]2O[C@]1(C)n1c3ccccc3c3c4c(c5c6ccccc6n2c5c31)C(=O)NC4 [Compound K-252a],NGF-stimulated proliferation of human keratinocytes,[7],prevents such proliferation
same,inhibition of trk tyrosine kinase,[8],inhibitor
same,inhibition of protein kinase C,[9],inhibitor
same,inhibition of transcription of IFNα genes,[10],inhibit the transcription of IFNα genes
NGF: a neurotrophin known to promote neurite extension in DRG cultures,proliferation of human keratinocytes,[7],stimulates the proliferation of human keratinocytes in culture
